Results reported in patent US20240182487A1, “MACROCYCLES AND THEIR USE” (BLOSSOMHILL THERAPEUTICS, INC., priority 2020, published 2024).

Assays:
Type in all cases: biochemical
[1] = target: EGFR Δ746-750/T790M mutant (Homo sapiens (Human), UniProt P00533, DEL746-750/T790M); test: HotSpot radiometric kinase assay, EGFR Δ746-750/T790M; settings: radiometric filter-binding, 10 μM ATP
Method: (§1) Biochemical Assays for Inhibition of Wild-Type and Mutant EGFRs
(§2) The inhibitory activities against EGFR WT, EGFR Δ752-759 mutant, EGFR Δ746-750/T790M mutant, EGFR Δ746-750/C797S mutant, EGFR Δ746-750/T790M/C797S mutant. […] Briefly, specific kinase/substrate pairs along with required cofactors were prepared in reaction buffer; 20 mM Hepes pH 7.5, 10 mM MgCl2, 1 mM EGTA, 0.02% Brij35, 0.02 mg/ml BSA, 0.1 mM Na3VO4, 2 mM DTT, 1% DMSO. Compounds were delivered into the reaction, followed ˜20 minutes later by addition of a mixture of ATP (Sigma, St. Louis MO) and ^33P ATP (Perkin Elmer, Waltham MA) to a final concentration of 10 μM. Reactions were carried out at room temperature for 120 min, followed by spotting of the reactions onto P81 ion exchange filter paper (Whatman Inc., Piscataway, NJ). Unbound phosphate was removed by extensive washing of filters in 0.75% phosphoric acid. […] IC50 values and curve fits were obtained using Prism (GraphPad Software).

EGFR L858R mutant = EGFR L858R mutant (Homo sapiens (Human), UniProt P00533, L858R); test: HotSpot radiometric kinase assay, EGFR L858R; settings: radiometric filter-binding, 10 μM ATP
[2] = target: EGFR Δ746-750/C797S mutant (Homo sapiens (Human), UniProt P00533, C797S/DEL746-750); test: HotSpot radiometric kinase assay, EGFR Δ746-750/C797S; settings: radiometric filter-binding, 10 μM ATP
EGFR Δ746-750/C797S mutant, sequence (P00533 other isoform, or with tags, fused parts or gaps C797S/del 1-668/del 746-750 limits assumed): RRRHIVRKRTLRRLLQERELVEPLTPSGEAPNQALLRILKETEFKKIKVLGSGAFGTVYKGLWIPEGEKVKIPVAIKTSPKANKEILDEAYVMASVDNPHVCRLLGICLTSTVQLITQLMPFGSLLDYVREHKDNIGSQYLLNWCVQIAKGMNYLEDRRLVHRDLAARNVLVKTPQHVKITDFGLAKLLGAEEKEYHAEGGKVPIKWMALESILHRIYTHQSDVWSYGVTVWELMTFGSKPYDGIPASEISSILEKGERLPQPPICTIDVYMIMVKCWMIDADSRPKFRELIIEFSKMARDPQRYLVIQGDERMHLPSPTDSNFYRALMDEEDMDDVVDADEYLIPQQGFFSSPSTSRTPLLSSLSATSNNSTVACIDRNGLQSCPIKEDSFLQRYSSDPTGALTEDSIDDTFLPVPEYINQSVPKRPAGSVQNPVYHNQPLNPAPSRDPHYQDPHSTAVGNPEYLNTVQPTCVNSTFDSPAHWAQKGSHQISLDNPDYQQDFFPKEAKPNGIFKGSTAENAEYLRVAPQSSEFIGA
Method: as §1, §2

EGFR (Δ746-750) = EGFR (Δ746-750) (Homo sapiens (Human), UniProt P00533, DEL746-750); test: HotSpot radiometric kinase assay, EGFR Δ746-750; settings: radiometric filter-binding, 10 μM ATP
EGFR (Δ746-750), sequence (P00533 other isoform, or with tags, fused parts or gaps del 1-668/del 746-750 limits assumed): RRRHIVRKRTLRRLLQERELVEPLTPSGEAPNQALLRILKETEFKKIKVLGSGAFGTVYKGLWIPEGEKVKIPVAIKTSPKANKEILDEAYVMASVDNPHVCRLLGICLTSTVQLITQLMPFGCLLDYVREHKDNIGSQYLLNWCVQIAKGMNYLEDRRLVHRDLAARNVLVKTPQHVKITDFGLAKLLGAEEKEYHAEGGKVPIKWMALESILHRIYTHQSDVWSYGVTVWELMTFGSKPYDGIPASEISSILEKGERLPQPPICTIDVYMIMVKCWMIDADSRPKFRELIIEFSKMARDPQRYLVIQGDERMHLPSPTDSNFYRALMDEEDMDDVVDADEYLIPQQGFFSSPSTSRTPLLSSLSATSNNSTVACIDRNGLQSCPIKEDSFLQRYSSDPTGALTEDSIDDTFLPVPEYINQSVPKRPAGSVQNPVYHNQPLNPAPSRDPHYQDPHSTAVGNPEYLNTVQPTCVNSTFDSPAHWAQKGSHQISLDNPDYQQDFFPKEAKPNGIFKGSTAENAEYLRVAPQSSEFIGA

[3] = target: EGFR Δ746-750/T790M/C797S mutant (Homo sapiens (Human), UniProt P00533, C797S/DEL746-750/T790M); test: HotSpot radiometric kinase assay, EGFR Δ746-750/T790M/C797S; settings: radiometric filter-binding, 10 μM ATP
Method: as §1, §2

EGFR WT = EGFR WT (Homo sapiens (Human), UniProt P00533); test: HotSpot radiometric kinase assay, EGFR WT; settings: radiometric filter-binding, 10 μM ATP
Method: as §1, §2

EGFR L858R/T790M mutant = EGFR L858R/T790M mutant (Homo sapiens (Human), UniProt P00533, L858R/T790M); test: HotSpot radiometric kinase assay, EGFR L858R/T790M; settings: radiometric filter-binding, 10 μM ATP; read-out: EGFR (L858R/T790M)_IC50
EGFR L858R/T790M mutant, sequence (P00533 25-1210 T790M/L858R): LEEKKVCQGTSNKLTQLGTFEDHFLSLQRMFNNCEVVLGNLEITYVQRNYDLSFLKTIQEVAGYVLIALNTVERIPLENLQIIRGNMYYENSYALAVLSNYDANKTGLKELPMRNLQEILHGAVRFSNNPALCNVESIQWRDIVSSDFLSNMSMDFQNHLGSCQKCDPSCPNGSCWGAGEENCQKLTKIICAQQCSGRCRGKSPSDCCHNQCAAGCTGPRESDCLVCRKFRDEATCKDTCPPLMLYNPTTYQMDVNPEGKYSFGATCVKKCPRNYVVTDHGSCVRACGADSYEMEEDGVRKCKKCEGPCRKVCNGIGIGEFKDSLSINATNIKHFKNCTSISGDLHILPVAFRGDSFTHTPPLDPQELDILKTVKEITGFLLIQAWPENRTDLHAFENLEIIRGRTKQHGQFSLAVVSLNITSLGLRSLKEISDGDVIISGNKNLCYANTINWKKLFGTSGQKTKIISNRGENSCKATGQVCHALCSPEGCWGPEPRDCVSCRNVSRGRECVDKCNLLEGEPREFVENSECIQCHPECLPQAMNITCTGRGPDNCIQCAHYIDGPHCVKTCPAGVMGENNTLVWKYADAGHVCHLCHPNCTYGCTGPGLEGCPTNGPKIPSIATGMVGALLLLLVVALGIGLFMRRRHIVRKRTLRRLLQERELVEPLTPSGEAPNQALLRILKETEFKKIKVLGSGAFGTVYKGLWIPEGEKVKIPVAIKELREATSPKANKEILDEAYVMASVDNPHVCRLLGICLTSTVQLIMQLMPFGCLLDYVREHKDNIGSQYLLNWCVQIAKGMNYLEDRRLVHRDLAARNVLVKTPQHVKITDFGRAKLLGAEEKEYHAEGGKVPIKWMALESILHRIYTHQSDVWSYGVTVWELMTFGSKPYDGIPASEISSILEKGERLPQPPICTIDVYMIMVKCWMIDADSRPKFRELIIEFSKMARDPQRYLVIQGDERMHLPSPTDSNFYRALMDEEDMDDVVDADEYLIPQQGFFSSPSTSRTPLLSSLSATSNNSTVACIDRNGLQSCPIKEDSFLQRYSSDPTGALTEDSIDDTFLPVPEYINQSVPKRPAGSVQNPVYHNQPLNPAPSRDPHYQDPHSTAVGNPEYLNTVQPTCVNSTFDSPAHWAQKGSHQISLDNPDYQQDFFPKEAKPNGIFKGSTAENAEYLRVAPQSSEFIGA

[4] = target: EGFR L858R/T790M/C797S mutant (Homo sapiens (Human), UniProt P00533, C797S/L858R/T790M); test: HotSpot radiometric kinase assay, EGFR L858R/T790M/C797S; settings: radiometric filter-binding, 10 μM ATP; read-out: EGFR (L858R/T790M/C797S/)_IC50
EGFR L858R/T790M/C797S mutant, sequence (P00533 25-1210 T790M/C797S/L858R): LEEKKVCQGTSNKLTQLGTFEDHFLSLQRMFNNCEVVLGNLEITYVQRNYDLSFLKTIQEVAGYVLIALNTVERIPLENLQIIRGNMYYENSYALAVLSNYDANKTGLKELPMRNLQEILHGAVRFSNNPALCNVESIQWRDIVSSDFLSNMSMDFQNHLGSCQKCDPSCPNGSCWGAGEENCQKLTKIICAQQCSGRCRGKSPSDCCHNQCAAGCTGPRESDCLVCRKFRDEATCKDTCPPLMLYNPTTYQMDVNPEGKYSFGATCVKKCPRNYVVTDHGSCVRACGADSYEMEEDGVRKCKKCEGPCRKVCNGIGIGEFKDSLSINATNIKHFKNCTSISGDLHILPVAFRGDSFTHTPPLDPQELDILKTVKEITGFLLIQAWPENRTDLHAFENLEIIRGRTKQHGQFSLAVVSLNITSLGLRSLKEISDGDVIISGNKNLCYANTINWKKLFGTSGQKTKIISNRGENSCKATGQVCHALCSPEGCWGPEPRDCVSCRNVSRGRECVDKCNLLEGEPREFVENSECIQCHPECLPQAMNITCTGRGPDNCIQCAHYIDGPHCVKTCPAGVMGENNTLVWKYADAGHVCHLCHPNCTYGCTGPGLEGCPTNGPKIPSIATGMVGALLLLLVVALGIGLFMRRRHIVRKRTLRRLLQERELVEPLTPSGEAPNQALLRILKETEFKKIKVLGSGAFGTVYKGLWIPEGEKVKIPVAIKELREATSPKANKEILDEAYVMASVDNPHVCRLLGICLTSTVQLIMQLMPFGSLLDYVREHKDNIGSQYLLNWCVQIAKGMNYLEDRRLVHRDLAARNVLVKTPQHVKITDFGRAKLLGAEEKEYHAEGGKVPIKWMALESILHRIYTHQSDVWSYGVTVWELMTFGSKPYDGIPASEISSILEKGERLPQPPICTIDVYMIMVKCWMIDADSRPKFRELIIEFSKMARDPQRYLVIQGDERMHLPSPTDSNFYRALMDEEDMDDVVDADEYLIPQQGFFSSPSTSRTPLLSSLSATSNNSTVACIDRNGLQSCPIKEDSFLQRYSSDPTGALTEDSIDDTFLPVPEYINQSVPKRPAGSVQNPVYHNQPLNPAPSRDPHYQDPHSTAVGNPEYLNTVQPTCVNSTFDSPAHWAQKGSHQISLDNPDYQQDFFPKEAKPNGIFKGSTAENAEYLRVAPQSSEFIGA

EGFR L858R/C797S mutant = EGFR L858R/C797S mutant (Homo sapiens (Human), UniProt P00533, C797S/L858R); test: HotSpot radiometric kinase assay, EGFR L858R/C797S; settings: radiometric filter-binding, 10 μM ATP
EGFR L858R/C797S mutant, sequence (P00533 25-1210 C797S/L858R): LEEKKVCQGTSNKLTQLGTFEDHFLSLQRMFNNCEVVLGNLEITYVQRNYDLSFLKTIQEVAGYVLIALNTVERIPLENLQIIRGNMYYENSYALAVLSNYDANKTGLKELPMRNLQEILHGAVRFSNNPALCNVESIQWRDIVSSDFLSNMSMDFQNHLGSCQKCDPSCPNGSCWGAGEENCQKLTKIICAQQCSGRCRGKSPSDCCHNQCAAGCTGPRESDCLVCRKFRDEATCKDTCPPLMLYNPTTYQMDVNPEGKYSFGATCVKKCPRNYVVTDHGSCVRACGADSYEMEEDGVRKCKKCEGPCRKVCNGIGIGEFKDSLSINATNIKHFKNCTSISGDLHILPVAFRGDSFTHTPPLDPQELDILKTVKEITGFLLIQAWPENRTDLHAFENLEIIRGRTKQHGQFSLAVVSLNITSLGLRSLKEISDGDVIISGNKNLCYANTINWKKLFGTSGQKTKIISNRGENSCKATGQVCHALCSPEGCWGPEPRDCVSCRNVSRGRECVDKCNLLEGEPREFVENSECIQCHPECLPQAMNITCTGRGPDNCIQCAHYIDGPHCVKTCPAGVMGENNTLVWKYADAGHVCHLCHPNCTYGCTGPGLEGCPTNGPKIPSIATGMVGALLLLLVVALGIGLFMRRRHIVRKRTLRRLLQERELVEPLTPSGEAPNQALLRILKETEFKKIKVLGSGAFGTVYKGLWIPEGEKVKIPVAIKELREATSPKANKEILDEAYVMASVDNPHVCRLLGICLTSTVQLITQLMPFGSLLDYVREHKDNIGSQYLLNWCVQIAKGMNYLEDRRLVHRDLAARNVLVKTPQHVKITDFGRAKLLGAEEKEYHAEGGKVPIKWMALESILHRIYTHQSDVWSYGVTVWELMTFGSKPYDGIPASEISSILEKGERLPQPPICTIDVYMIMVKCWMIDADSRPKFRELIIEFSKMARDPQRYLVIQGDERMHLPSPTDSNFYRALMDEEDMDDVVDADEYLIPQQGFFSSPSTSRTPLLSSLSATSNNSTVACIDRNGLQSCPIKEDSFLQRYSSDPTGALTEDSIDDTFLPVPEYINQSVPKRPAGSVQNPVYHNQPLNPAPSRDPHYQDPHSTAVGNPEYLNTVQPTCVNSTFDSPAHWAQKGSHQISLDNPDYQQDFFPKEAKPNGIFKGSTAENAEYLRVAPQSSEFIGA

SMILES | IC50 [1] | IC50 (EGFR L858R mutant) | IC50 [2] | IC50 (EGFR (Δ746-750)) | IC50 [3] | IC50 (EGFR WT) | IC50 (EGFR L858R/T790M mutant) | IC50 [4] | IC50 (EGFR L858R/C797S mutant)
Cn1ncc2c1OCCCOc1ccccc1/C=C/c1n[nH]c3cnc-2cc13 [Cpd. 1, (11E)-1-methyl-19,20-dihydro-1H,8H,18H-10,7,4-(ethan[1]yl[1,2]diylidene)pyrazolo[3,4-f][1,5,9,12,13]benzodioxatriazacyclooctadecine] | 2.1 nM | 29.1 nM | 4.8 nM | 6.8 nM | 0.22 nM | 46.4 nM | 4.1 nM | 15 nM | 55 nM
CN(C)CCNC(=O)c1ccc2c(c1)OCCOCc1c(cnn1C)-c1cc3c(n[nH]c3cn1)/C=C/2 [Cpd. 81, (11E)-N-[2-(dimethylamino)ethyl]-1-methyl-1,18,19,21-tetrahydro-8H-10,7,4-(ethan[1]yl[1,2]diylidene)pyrazolo[3,4-f][1,4,9,12,13]benzodioxatriazacyclooctadecine-15-carboxamide] |  | 28.1 nM |  | 40.1 nM |  | 94.6 nM |  | 14.1 nM | 
Cn1ncc2c1OCCCOc1ccccc1/C=C/c1n[nH]c3ccc-2cc13 [Cpd. 3, (11E)-1-methyl-19,20-dihydro-1H,8H,18H-10,7,4-(ethan[1]yl[1,2]diylidene)pyrazolo[3,4-f][1,5,12,13]benzodioxadiazacyclooctadecine] | 13.2 nM | 374 nM | 24.4 nM | 79 nM | 10.2 nM | 1050 nM | 138 nM | 278 nM | 1070 nM
Cn1ncc2c1OCCCOc1ccccc1/C=C/c1n[nH]c3ccc-2nc13 [Cpd. 2, (18E)-8-methyl-2,8,11,12-tetrahydro-10H-3,5-ethenodipyrazolo[3,4-f:4′,3′-j][1,5,9]benzodioxazacyclopentadecine] | 22.9 nM | 258 nM | 16.2 nM | 49.1 nM | 29.3 nM | 554 nM | 301 nM | 692 nM | 595 nM
CN(C)CCNC(=O)c1ccc2c(c1)/C=C/c1n[nH]c3cnc(cc13)-c1cnn(C)c1OCCCO2 [Cpd. 71] |  | 1.6 nM |  | 2.4 nM |  | 3.9 nM |  | 3.7 nM | 
